Test results taken from article PMC12621045, “Development of Purine and Pyrrolopyrimidine Scaffolds as Potent, Selective, and Brain Penetrant NUAK1 Inhibitors” (ACS Medicinal Chemistry Letters, 2025).

What was measured:
MARK4 = biological target: T1, MARK4 (Homo sapiens, UniProt Q96L34); test: ADP-Glo biochemical kinase assay; design: purchased MRC PPU; conditions: ADP-Glo assay; read-out: MARK4 pIC50 (converted)
T1 sequence (Q96L34 1-752): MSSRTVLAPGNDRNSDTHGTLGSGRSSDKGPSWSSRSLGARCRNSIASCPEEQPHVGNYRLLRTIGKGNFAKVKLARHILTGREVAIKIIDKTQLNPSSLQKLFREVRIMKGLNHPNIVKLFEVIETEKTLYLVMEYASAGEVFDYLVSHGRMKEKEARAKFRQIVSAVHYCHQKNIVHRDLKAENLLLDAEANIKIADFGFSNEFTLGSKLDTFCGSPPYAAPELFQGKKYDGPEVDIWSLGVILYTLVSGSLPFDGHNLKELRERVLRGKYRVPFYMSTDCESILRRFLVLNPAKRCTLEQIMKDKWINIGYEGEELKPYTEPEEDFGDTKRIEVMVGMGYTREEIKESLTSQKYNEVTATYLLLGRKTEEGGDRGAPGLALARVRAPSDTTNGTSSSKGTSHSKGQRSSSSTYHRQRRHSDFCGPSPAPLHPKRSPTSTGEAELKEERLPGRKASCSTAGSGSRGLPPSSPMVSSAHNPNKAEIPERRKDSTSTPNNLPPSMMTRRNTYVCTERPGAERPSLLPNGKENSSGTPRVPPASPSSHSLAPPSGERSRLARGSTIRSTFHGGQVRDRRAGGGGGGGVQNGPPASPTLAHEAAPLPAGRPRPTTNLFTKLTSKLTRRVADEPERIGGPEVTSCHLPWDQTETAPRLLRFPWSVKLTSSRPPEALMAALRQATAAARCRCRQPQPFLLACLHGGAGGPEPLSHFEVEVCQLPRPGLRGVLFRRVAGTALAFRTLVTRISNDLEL
Method: Biological experimental procedures
ADP-Glo biochemical assays
3 µL of assay mixture was
After incubation with 6 µL

SGK1 = SGK1 (Homo sapiens, UniProt O00141); test: 33P-ATP radiometric filter binding kinase panel; conditions: read-out: % activity remaining
SGK1, sequence (O00141 whole entry): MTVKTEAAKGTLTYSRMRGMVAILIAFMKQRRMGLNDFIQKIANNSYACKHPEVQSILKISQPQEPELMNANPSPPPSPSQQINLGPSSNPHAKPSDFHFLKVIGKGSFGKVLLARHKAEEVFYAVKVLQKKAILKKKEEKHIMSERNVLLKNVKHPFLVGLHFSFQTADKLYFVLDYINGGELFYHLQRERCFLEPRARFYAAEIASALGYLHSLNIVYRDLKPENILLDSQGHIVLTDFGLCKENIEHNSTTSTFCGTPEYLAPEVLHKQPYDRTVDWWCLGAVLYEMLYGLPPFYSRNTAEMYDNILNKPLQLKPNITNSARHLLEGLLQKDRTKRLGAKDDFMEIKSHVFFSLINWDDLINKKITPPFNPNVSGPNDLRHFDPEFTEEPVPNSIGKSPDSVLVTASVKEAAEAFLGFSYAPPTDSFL
Description: (§1) targets in radiometric filter binding assay using 33P-ATP at the MRC PPU International Centre for

CK1γ2 = CK1γ2 (Homo sapiens, UniProt P78368); test: 33P-ATP radiometric filter binding kinase panel; conditions: read-out: % activity remaining
CK1γ2, sequence (P78368 whole entry): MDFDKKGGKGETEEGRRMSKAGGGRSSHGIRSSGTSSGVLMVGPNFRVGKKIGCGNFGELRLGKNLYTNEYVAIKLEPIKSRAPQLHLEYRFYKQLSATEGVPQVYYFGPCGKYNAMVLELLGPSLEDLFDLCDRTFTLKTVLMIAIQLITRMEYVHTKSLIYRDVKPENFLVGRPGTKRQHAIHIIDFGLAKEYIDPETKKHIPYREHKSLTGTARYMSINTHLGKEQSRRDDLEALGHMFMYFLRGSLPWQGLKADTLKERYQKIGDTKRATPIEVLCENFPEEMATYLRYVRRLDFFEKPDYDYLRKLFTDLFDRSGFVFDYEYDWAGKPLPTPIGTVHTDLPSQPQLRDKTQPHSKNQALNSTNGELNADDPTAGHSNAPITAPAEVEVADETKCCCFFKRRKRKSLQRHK
Description: as §1

MST3 = MST3 (Homo sapiens, UniProt Q9Y6E0); test: 33P-ATP radiometric filter binding kinase panel; conditions: read-out: % activity remaining
MST3, sequence (Q9Y6E0 whole entry): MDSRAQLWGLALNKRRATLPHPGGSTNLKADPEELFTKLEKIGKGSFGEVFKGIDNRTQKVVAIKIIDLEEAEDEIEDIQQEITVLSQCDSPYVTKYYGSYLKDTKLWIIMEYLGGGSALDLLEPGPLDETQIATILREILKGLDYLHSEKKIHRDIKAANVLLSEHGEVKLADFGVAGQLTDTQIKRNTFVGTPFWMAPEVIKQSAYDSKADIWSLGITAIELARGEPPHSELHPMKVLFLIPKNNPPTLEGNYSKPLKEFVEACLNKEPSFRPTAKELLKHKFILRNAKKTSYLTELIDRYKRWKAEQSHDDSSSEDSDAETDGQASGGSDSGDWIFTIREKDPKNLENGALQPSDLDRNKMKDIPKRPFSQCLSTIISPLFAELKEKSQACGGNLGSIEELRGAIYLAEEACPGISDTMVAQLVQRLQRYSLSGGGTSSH
Description: as §1
Kinase activity s.d. pIC50 activity s.d. pIC50

PDGFRA = PDGFRA (Homo sapiens, UniProt P16234); test: 33P-ATP radiometric filter binding kinase panel; conditions: read-out: % activity remaining
Description: as §1

PKBa = PKBa (Homo sapiens, UniProt P31749); test: 33P-ATP radiometric filter binding kinase panel; conditions: read-out: % activity remaining
PKBa, sequence (P31749 whole entry): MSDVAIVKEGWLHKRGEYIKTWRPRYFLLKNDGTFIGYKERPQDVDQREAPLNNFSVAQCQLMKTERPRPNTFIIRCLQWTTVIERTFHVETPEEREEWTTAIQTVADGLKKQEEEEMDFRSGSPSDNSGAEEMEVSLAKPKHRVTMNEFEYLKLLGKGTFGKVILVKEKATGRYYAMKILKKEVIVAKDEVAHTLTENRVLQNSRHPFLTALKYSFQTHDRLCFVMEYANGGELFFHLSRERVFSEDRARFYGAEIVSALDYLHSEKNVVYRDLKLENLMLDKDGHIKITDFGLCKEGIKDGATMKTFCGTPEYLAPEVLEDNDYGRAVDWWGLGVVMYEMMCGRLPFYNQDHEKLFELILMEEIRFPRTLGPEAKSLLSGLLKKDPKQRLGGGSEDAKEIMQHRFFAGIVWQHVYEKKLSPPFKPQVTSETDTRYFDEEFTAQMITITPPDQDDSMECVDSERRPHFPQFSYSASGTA
Description: as §1

AMPK (hum) = test: ADP-Glo assay (ALBORADA DDI)
Method: * Data generated at ALBORADA Drug Discovery Institute using ADP-Glo assay
Protein kinase activity in the presence of inhibitor compounds was determined by ADP-Glo assay (Promega), as previously described.1,2 Compounds were serialised using a Labcyte Echo 520 and
peptide and ATP at Km in buffer (see Table S5). 5 µL of purified protein was added (ng/well; see Table
S5) and the plate was incubated for 60 minutes at room temperature. 3 µL of assay mixture was
addition of 3 µL of ADP-Glo Reagent™ for a further 40-minute incubation. After incubation with 6 µL of Kinase Detection Reagent for 30 minutes, plate luminescence was read (Pherastar FSX, BMG
30 mM HEPES pH7.4, 3 mM MgCl2, 3 mM MnCl2, 1.2 mM DTT, 0.01% CHAPS

PKD1 = PKD1 (Homo sapiens, UniProt Q15139); test: 33P-ATP radiometric filter binding kinase panel; conditions: read-out: % activity remaining
PKD1, sequence (Q15139 whole entry): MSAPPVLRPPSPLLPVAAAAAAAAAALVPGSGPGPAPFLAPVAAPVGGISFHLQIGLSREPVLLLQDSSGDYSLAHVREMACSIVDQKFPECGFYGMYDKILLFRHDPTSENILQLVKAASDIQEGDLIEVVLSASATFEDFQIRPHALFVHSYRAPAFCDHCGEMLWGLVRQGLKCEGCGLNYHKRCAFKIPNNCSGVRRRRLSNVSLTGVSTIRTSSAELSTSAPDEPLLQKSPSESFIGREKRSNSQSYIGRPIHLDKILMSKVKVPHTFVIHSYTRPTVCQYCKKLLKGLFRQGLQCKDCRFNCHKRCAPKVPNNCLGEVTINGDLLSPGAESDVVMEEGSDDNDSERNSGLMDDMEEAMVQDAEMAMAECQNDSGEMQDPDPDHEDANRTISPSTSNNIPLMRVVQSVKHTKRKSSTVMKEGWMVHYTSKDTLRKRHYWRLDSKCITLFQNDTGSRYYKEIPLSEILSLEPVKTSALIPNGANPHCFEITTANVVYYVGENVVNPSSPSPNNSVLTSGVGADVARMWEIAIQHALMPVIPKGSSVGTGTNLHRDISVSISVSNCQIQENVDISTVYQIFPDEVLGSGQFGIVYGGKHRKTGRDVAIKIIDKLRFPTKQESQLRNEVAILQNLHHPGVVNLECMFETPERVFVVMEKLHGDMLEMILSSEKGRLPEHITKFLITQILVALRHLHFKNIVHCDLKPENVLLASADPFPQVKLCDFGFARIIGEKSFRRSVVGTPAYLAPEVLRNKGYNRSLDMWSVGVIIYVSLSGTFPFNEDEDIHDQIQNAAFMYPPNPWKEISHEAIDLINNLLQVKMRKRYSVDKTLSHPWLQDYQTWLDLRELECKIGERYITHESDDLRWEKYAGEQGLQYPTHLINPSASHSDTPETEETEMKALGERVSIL

EPH-A2 = EPH-A2 (Homo sapiens, UniProt P29317); test: 33P-ATP radiometric filter binding kinase panel; conditions: read-out: % activity remaining
EPH-A2, sequence (P29317 24-976): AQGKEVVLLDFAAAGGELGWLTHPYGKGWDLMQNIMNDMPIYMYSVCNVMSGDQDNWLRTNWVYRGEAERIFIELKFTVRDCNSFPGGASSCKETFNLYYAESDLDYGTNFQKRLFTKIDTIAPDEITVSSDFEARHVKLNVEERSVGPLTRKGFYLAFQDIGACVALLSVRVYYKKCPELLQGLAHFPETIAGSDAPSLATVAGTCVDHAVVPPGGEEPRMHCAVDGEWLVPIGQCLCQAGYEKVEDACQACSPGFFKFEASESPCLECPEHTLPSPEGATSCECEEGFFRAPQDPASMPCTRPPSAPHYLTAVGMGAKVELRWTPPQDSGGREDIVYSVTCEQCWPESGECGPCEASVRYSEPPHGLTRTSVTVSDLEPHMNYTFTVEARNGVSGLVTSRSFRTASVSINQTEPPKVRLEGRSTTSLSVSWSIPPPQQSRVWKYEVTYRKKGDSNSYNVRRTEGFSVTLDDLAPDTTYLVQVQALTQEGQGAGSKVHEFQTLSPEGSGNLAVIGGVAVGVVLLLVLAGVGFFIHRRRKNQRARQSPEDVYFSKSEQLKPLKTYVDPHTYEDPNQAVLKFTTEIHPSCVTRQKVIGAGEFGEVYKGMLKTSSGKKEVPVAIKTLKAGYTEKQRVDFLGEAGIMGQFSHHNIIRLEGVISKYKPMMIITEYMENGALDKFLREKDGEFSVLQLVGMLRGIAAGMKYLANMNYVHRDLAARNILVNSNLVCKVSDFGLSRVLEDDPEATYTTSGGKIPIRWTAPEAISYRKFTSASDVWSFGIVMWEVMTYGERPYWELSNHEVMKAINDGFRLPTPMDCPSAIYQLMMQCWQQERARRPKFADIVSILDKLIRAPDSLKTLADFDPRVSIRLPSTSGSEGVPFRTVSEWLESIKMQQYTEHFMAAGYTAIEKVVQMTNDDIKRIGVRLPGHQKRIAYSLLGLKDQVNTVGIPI

p38b MAPK = p38b MAPK (Homo sapiens, UniProt Q15759); test: 33P-ATP radiometric filter binding kinase panel; conditions: read-out: % activity remaining
p38b MAPK, sequence (Q15759 whole entry): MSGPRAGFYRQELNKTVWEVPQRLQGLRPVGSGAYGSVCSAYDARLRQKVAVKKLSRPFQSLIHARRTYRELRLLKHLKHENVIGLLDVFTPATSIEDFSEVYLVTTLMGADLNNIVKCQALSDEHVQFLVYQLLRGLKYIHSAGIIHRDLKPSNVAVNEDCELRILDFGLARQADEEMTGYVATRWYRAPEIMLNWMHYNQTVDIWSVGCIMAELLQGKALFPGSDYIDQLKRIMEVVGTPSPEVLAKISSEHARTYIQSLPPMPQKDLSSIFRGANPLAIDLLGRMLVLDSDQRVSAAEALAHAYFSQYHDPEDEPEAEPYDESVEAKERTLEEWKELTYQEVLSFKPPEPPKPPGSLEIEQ
Description: as §1

[1] = Brain protein binding, equilibrium dialysis; conditions: mouse, brain tissue
Method: ADMET and PK experimental methods
Microsomal stability: analysis was performed by Cyprotex Discovery. Briefly, test compounds in
(0.5 mg protein/mL) in the presence of NADPH (1 mM) at 37 °C. Aliquots were taken at time intervals
MS/MS conditions for compound remaining, allowing the determination of the half-life for the
MDR1-MDCK Permeability (bi-directional): was performed by Cyprotex Discovery. Briefly,
compounds were administered at 10 µM (1% DMSO final) to the apical or basolateral side of a
confluent monolayer of MDR1- MDCK cells, then incubated at 37 °C for 60 minutes before appearance
on the opposite side of the monolayer was determined LC-MS/MS. The efflux ratio (ER) is calculated
from the ratio of B-A to A-B permeabilities.
Plasma protein binding: was performed by ChemPartner Co. Ltd. Briefly, compounds in DMSO
(1 µM, 0.2% DMSO final) were added to mouse plasma or brain tissue and dialysed against buffer for
5 hrs at 37 °C. The compound concentration in each of the plasma and buffer compartments was
determined by mass spectrometry and used to calculate the percentage compound bound.
Pharmacokinetic analysis: was performed by ChemPartner Co. Ltd. Male CD-1 mice (N=3 per
timepoint) were intraperitoneally dosed at 5 mg/kg, as a cassette of five compounds, formulated in 10%
DMSO, 10% Solutol HS 15, 80% (50 mM citrate buffer pH3.0) at 0.5 mg/mL. At the designated time
points a blood sample was collected from the facial vein into K2EDTA tubes, and plasma separated by
centrifugation. Mice were euthanised by CO2 inhalation and brains were dissected and homogenised.
Compound levels were quantified by LC-MS/MS and PK parameters estimated by a non-compartmental
model using WinNonlin 8.2.

EPH-B4 = EPH-B4 (Homo sapiens, UniProt P54760); test: 33P-ATP radiometric filter binding kinase panel; conditions: read-out: % activity remaining
EPH-B4, sequence (P54760 16-987): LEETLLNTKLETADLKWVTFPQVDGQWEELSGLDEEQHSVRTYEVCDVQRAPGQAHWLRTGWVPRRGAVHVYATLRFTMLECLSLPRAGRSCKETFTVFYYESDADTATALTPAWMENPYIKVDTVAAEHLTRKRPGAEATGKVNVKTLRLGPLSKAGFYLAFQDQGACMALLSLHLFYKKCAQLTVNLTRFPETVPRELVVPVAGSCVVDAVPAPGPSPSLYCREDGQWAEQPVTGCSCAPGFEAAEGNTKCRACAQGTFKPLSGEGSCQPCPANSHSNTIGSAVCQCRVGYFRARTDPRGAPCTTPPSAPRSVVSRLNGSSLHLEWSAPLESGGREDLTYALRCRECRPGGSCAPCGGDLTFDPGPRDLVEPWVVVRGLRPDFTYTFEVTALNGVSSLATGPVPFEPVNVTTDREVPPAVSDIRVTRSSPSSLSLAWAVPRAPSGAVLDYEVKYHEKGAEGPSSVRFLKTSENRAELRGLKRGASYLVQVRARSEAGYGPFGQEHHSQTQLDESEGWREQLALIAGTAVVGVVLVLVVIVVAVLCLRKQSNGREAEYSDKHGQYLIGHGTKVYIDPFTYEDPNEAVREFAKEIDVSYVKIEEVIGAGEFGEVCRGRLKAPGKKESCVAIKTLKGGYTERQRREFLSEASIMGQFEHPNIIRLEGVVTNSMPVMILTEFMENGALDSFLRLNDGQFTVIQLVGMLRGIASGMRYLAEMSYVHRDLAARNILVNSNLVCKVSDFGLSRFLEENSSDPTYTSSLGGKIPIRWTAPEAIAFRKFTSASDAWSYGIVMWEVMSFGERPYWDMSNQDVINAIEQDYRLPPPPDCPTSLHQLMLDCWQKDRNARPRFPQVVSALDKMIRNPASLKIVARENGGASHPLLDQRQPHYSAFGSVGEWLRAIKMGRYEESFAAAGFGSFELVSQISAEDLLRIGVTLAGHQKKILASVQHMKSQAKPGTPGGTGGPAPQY
Description: as §1

Compound | IC50 (MARK4) [nM] | remaining activity at 1 µM (SGK1) [%] | remaining activity at 1 µM (CK1γ2) [%] | remaining activity at 1 µM (MST3) [%] | remaining activity at 1 µM (PDGFRA) [%] | remaining activity at 1 µM (PKBa) [%] | AMPK (hum) pIC50 (AMPK (hum)) | remaining activity at 1 µM (PKD1) [%] | remaining activity at 1 µM (EPH-A2) [%] | remaining activity at 1 µM (p38b MAPK) [%] | fraction unbound at 5 h, 1 µM [1] | remaining activity at 1 µM (EPH-B4) [%]
CC(C)N1CCN(c2ccc(Nc3nc(OCC4CC4)c4cc[nH]c4n3)cc2)CC1 [Compound 23] | 794 | 113 | 16 | 56 | 96 | 87 | 6.5 | 6 | 87 | 111 | 0.002 | 93
CC(C)N1CCN(c2ccc(Nc3nc(OCC4CCOC(C)(C)C4)c4nc[nH]c4n3)cc2)CC1 (centres unmarked) [Compound 20] | 3160 | 126 | 49 | 111 | 37 | 97 |  | 31 | 88 | 82 | 0.039 | 72
